Reference: ChEMBL document CHEMBL3885881, “DrugMatrix”

Organism: Rattus norvegicus
Assay: DrugMatrix - Regimen: Daily Repeat
Format: toxicity, organism-based, Sprague-Dawley
Set-up: regimen Daily Repeat, gender Male, age 6-8 weeks
Settings: in vivo, po, route oral GAVAGE, […]; for TOTAL PROTEIN / URIC ACID / ALANINE AMINOTRANSFERASE / ALBUMIN / ALKALINE PHOSPHATASE / ASPARTATE AMINOTRANSFERASE / BLOOD UREA NITROGEN / CARBON DIOXIDE / CHOLESTEROL / CREATINE PHOSPHOKINASE / CREATININE / GLUCOSE / LACTATE DEHYDROGENASE / LIPASE / TOTAL BILIRUBIN: tissue Plasma; for ABSOLUTE BASOPHIL / ABSOLUTE EOSINOPHIL / ABSOLUTE LYMPHOCYTE / ABSOLUTE MONOCYTE / ABSOLUTE SEGMENTED NEUTROPHIL / BASOPHIL / EOSINOPHIL / ERYTHROCYTE COUNT / HEMATOCRIT / HEMOGLOBIN / LEUKOCYTE COUNT / LYMPHOCYTE / MEAN CORPUSCULAR HEMOGLOBIN / MEAN CORPUSCULAR HEMOGLOBIN CONCENTRATION / MEAN CORPUSCULAR VOLUME / MONOCYTE / NEUTROPHIL / NUCLEATED RED BLOOD CELLS / PLATELET COUNT: tissue Blood
[1] = 32 mg/kg, 120 h, dose level M2, time 5 day
[2] = 64 mg/kg, 72 h, dose level High, time 3 day
[3] = 64 mg/kg, 120 h, dose level High, time 5 day
[4] = 72 h, dose 2.5 mg/Kg, dose level Low, time 3 day
[5] = 120 h, dose 2.5 mg/Kg, dose level Low, time 5 day

In the case of CC/C(=C(\c1ccccc1)c1ccc(OCCN(C)C)cc1)c1ccccc1 [TAMOXIFEN], the “TOTAL PROTEIN” value [1] is reported as 6.4 G/DL, the “URIC ACID” value [1] is reported as 2.17 mg/dL and the “ABSOLUTE BASOPHIL” value [2] is reported as 0 CELLS/uL. The “ABSOLUTE EOSINOPHIL” value [2] was 0 CELLS/uL, the “ABSOLUTE LYMPHOCYTE” value [2] was 5492.33 CELLS/uL and the “ABSOLUTE MONOCYTE” value [2] was 14 CELLS/uL. The “ABSOLUTE SEGMENTED NEUTROPHIL” value [2] was 260.33 CELLS/uL, the BASOPHIL [2] was 0% and the EOSINOPHIL [2] was 0%. For the same molecule, the “ERYTHROCYTE COUNT” value [2] was 5.73 x10E6/uL, the HEMATOCRIT [2] was 35.43% and the HEMOGLOBIN [2] was 13.57 G/DL. The “LEUKOCYTE COUNT” value [2] was 5.77 x10E3/uL, the LYMPHOCYTE [2] was 94.67% and the “MEAN CORPUSCULAR HEMOGLOBIN” value [2] was 23.73 pg. The “MEAN CORPUSCULAR HEMOGLOBIN CONCENTRATION” value [2] was 38.3 G/DL, the “MEAN CORPUSCULAR VOLUME” value [2] was 62.03 fL and the MONOCYTE [2] was 0.33%. The NEUTROPHIL [2] was 5%, the “NUCLEATED RED BLOOD CELLS” value [2] was 0 /100WBC and the “PLATELET COUNT” value [2] was 879.67 x10E3/uL. The “ALANINE AMINOTRANSFERASE” value [2] was 151 u/L, the ALBUMIN [2] was 3.87 G/DL and the “ALKALINE PHOSPHATASE” value [2] was 492 u/L. For the same molecule, the “ASPARTATE AMINOTRANSFERASE” value [2] was 96.67 u/L, the “BLOOD UREA NITROGEN” value [2] was 10 mg/dL and the “CARBON DIOXIDE” value [2] was 30.33 mmol/L. For the same molecule, the CHOLESTEROL [2] was 38.33 mg/dL, the “CREATINE PHOSPHOKINASE” value [2] was 356.33 u/L and the CREATININE [2] was 0.11 mg/dL. For the same molecule, the GLUCOSE [2] was 148 mg/dL, the “LACTATE DEHYDROGENASE” value [2] was 98 u/L and the LIPASE [2] was 10.67 u/L. The “TOTAL BILIRUBIN” value [2] was 0.1 mg/dL, the “TOTAL PROTEIN” value [2] was 5.77 G/DL and the “URIC ACID” value [2] was 0.43 mg/dL. The “ABSOLUTE BASOPHIL” value [3] was 0 CELLS/uL, the “ABSOLUTE EOSINOPHIL” value [3] was 0 CELLS/uL and the “ABSOLUTE LYMPHOCYTE” value [3] was 6999 CELLS/uL. The “ABSOLUTE MONOCYTE” value [3] was 72.33 CELLS/uL, the “ABSOLUTE SEGMENTED NEUTROPHIL” value [3] was 495.33 CELLS/uL and the BASOPHIL [3] was 0%. For the same molecule, the EOSINOPHIL [3] was 0%, the “ERYTHROCYTE COUNT” value [3] was 6.14 x10E6/uL and the HEMATOCRIT [3] was 38.5%. The HEMOGLOBIN [3] was 14.9 G/DL, the “LEUKOCYTE COUNT” value [3] was 7.57 x10E3/uL and the LYMPHOCYTE [3] was 92.33%. For the same molecule, the “MEAN CORPUSCULAR HEMOGLOBIN” value [3] was 24.27 pg, the “MEAN CORPUSCULAR HEMOGLOBIN CONCENTRATION” value [3] was 38.7 G/DL and the “MEAN CORPUSCULAR VOLUME” value [3] was 62.63 fL. For the same molecule, the MONOCYTE [3] was 1%, the NEUTROPHIL [3] was 6.67% and the “NUCLEATED RED BLOOD CELLS” value [3] was 0.33 /100WBC. For the same molecule, the “PLATELET COUNT” value [3] was 1000.33 x10E3/uL, the “ALANINE AMINOTRANSFERASE” value [3] was 226.33 u/L and the ALBUMIN [3] was 3.63 G/DL. The “ALKALINE PHOSPHATASE” value [3] was 346.67 u/L, the “ASPARTATE AMINOTRANSFERASE” value [3] was 140 u/L and the “BLOOD UREA NITROGEN” value [3] was 7.67 mg/dL. The “CARBON DIOXIDE” value [3] was 30 mmol/L, the CHOLESTEROL [3] was 43.33 mg/dL and the “CREATINE PHOSPHOKINASE” value [3] was 593 u/L. The CREATININE [3] was 0.12 mg/dL, the GLUCOSE [3] was 136.33 mg/dL and the “LACTATE DEHYDROGENASE” value [3] was 145.33 u/L. The LIPASE [3] was 10.33 u/L, the “TOTAL BILIRUBIN” value [3] was 0.1 mg/dL and the “TOTAL PROTEIN” value [3] was 5.3 G/DL. The “URIC ACID” value [3] was 0.67 mg/dL, the “ABSOLUTE BASOPHIL” value [4] was 0 CELLS/uL and the “ABSOLUTE EOSINOPHIL” value [4] was 0 CELLS/uL. The “ABSOLUTE LYMPHOCYTE” value [4] was 5987.33 CELLS/uL, the “ABSOLUTE MONOCYTE” value [4] was 0 CELLS/uL and the “ABSOLUTE SEGMENTED NEUTROPHIL” value [4] was 346 CELLS/uL. For the same molecule, the BASOPHIL [4] was 0%, the EOSINOPHIL [4] was 0% and the “ERYTHROCYTE COUNT” value [4] was 5.38 x10E6/uL. The HEMATOCRIT [4] was 32.47%, the HEMOGLOBIN [4] was 12.63 G/DL and the “LEUKOCYTE COUNT” value [4] was 6.33 x10E3/uL. For the same molecule, the LYMPHOCYTE [4] was 94.33%, the “MEAN CORPUSCULAR HEMOGLOBIN” value [4] was 23.5 pg and the “MEAN CORPUSCULAR HEMOGLOBIN CONCENTRATION” value [4] was 38.9 G/DL. For the same molecule, the “MEAN CORPUSCULAR VOLUME” value [4] was 60.4 fL, the MONOCYTE [4] was 0% and the NEUTROPHIL [4] was 5.67%. The “NUCLEATED RED BLOOD CELLS” value [4] was 0 /100WBC, the “PLATELET COUNT” value [4] was 919.67 x10E3/uL and the “ALANINE AMINOTRANSFERASE” value [4] was 63.33 u/L. For the same molecule, the ALBUMIN [4] was 3.8 G/DL, the “ALKALINE PHOSPHATASE” value [4] was 412.33 u/L and the “ASPARTATE AMINOTRANSFERASE” value [4] was 76.33 u/L. The “BLOOD UREA NITROGEN” value [4] was 11 mg/dL, the “CARBON DIOXIDE” value [4] was 34 mmol/L and the CHOLESTEROL [4] was 44.33 mg/dL. For the same molecule, the “CREATINE PHOSPHOKINASE” value [4] was 193 u/L, the CREATININE [4] was 0.1 mg/dL and the GLUCOSE [4] was 160.67 mg/dL. For the same molecule, the “LACTATE DEHYDROGENASE” value [4] was 89 u/L, the LIPASE [4] was 10 u/L and the “TOTAL BILIRUBIN” value [4] was 0.13 mg/dL. For the same molecule, the “TOTAL PROTEIN” value [4] was 5.67 G/DL, the “URIC ACID” value [4] was 0.57 mg/dL and the “ABSOLUTE BASOPHIL” value [5] was 0 CELLS/uL. For the same molecule, the “ABSOLUTE EOSINOPHIL” value [5] was 0 CELLS/uL, the “ABSOLUTE LYMPHOCYTE” value [5] was 7101.67 CELLS/uL and the “ABSOLUTE MONOCYTE” value [5] was 21.33 CELLS/uL. The “ABSOLUTE SEGMENTED NEUTROPHIL” value [5] was 443.67 CELLS/uL, the BASOPHIL [5] was 0% and the EOSINOPHIL [5] was 0%. For the same molecule, the “ERYTHROCYTE COUNT” value [5] was 5.73 x10E6/uL, the HEMATOCRIT [5] was 35.9% and the HEMOGLOBIN [5] was 14 G/DL. The “LEUKOCYTE COUNT” value [5] was 7.57 x10E3/uL, the LYMPHOCYTE [5] was 93.67% and the “MEAN CORPUSCULAR HEMOGLOBIN” value [5] was 24.43 pg. For the same molecule, the “MEAN CORPUSCULAR HEMOGLOBIN CONCENTRATION” value [5] was 39.07 G/DL, the “MEAN CORPUSCULAR VOLUME” value [5] was 62.63 fL and the MONOCYTE [5] was 0.33%. The NEUTROPHIL [5] was 6%, the “NUCLEATED RED BLOOD CELLS” value [5] was 0.33 /100WBC and the “PLATELET COUNT” value [5] was 1179.33 x10E3/uL. For the same molecule, the “ALANINE AMINOTRANSFERASE” value [5] was 95 u/L, the ALBUMIN [5] was 4.13 G/DL and the “ALKALINE PHOSPHATASE” value [5] was 534.33 u/L. For the same molecule, the “ASPARTATE AMINOTRANSFERASE” value [5] was 94.33 u/L, the “BLOOD UREA NITROGEN” value [5] was 11.33 mg/dL and the “CARBON DIOXIDE” value [5] was 31 mmol/L. The CHOLESTEROL [5] was 43 mg/dL, the “CREATINE PHOSPHOKINASE” value [5] was 303.67 u/L and the CREATININE [5] was 0.1 mg/dL. For the same molecule, the GLUCOSE [5] was 148.33 mg/dL, the “LACTATE DEHYDROGENASE” value [5] was 142.67 u/L and the LIPASE [5] was 10.67 u/L. For the same molecule, the “TOTAL BILIRUBIN” value [5] was 0.1 mg/dL, the “TOTAL PROTEIN” value [5] was 6 G/DL and the “URIC ACID” value [5] was 0.73 mg/dL.
